Measured values published in PubChem BioAssay (NCI).
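How tested: cells in 96-well plates exposed to compound for 48 hours at five concentrations. GI50 is the concentration that inhibits growth by half. TGI is the concentration that stops growth completely.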

How the values were obtained:
Test in all cases: NCI tumour cell line growth inhibition, 48 h
MALME-3M melanoma = tested on: MALME-3M melanoma
OVCAR-5 ovarian = tested on: OVCAR-5 ovarian
NCI/ADR-RES ovarian = tested on: NCI/ADR-RES ovarian
SW-620 colon = tested on: SW-620 colon
UACC-257 melanoma = tested on: UACC-257 melanoma
HCT-15 colon = tested on: HCT-15 colon
RXF 393 renal = tested on: RXF 393 renal
HCT-116 colon = tested on: HCT-116 colon
SK-OV-3 ovarian = tested on: SK-OV-3 ovarian
A549 NSCLC = tested on: A549 NSCLC
HS 578T breast = tested on: HS 578T breast
MDA-MB-231 breast = tested on: MDA-MB-231 breast
KM12 colon = tested on: KM12 colon
NCI-H522 lung = tested on: NCI-H522 lung
NCI-H226 lung = tested on: NCI-H226 lung
HL-60(TB) leukemia = tested on: HL-60(TB) leukemia
MDA-MB-435 = tested on: MDA-MB-435
SF-539 CNS = tested on: SF-539 CNS
DU-145 prostate = tested on: DU-145 prostate
TK-10 renal = tested on: TK-10 renal
T-47D breast = tested on: T-47D breast
OVCAR-8 ovarian = tested on: OVCAR-8 ovarian
SNB-75 CNS = tested on: SNB-75 CNS
ACHN renal = tested on: ACHN renal
BT-549 breast = tested on: BT-549 breast
SN12C renal = tested on: SN12C renal
OVCAR-4 ovarian = tested on: OVCAR-4 ovarian
HCC-2998 colon = tested on: HCC-2998 colon
SK-MEL-2 melanoma = tested on: SK-MEL-2 melanoma
OVCAR-3 ovarian = tested on: OVCAR-3 ovarian
PC-3 prostate = tested on: PC-3 prostate
HT29 colon = tested on: HT29 colon
EKVX NSCLC = tested on: EKVX NSCLC
SK-MEL-28 melanoma = tested on: SK-MEL-28 melanoma
IGROV1 ovarian = tested on: IGROV1 ovarian
SK-MEL-5 melanoma = tested on: SK-MEL-5 melanoma
UACC-62 melanoma = tested on: UACC-62 melanoma
A498 renal = tested on: A498 renal
786-0 renal = tested on: 786-0 renal
NCI-H460 lung = tested on: NCI-H460 lung
UO-31 renal = tested on: UO-31 renal

CCOC(=O)c1cc(C(=O)c2cc(OC)c(OC)c(OC)c2)n2ccc(-c3cc[n+](CC(=O)c4cc(OC)c(OC)c(OC)c4)cc3)cc12
GI50 (MALME-3M melanoma): 1.73 µM
TGI (MALME-3M melanoma): 3.68 µM
GI50 (OVCAR-5 ovarian): 1.84 µM
TGI (OVCAR-5 ovarian): 5.24 µM
GI50 (NCI/ADR-RES ovarian): > 100 µM
TGI (NCI/ADR-RES ovarian): > 100 µM
GI50 (SW-620 colon): 1.76 µM
TGI (SW-620 colon): 3.47 µM
GI50 (UACC-257 melanoma): 3.13 µM
TGI (UACC-257 melanoma): 7.04 µM
GI50 (HCT-15 colon): 2.62 µM
TGI (HCT-15 colon): 7.93 µM
GI50 (RXF 393 renal): 1.66 µM
TGI (RXF 393 renal): 3.48 µM
GI50 (HCT-116 colon): 1.72 µM
TGI (HCT-116 colon): 3.5 µM
GI50 (SK-OV-3 ovarian): 19.6 µM
TGI (SK-OV-3 ovarian): 47.1 µM
GI50 (A549 NSCLC): 3.29 µM
TGI (A549 NSCLC): 6.29 µM
GI50 (HS 578T breast): 1.74 µM
TGI (HS 578T breast): 4.29 µM
GI50 (MDA-MB-231 breast): 1.66 µM
TGI (MDA-MB-231 breast): 3.29 µM
GI50 (KM12 colon): 1.81 µM
TGI (KM12 colon): 3.42 µM
GI50 (NCI-H522 lung): 2.13 µM
TGI (NCI-H522 lung): 5.04 µM
GI50 (NCI-H226 lung): 2.37 µM
TGI (NCI-H226 lung): 6.62 µM
GI50 (HL-60(TB) leukemia): 2.58 µM
TGI (HL-60(TB) leukemia): 5.75 µM
GI50 (MDA-MB-435): 1.9 µM
TGI (MDA-MB-435): 3.85 µM
GI50 (SF-539 CNS): 1.61 µM
TGI (SF-539 CNS): 3.3 µM
GI50 (DU-145 prostate): 1.8 µM
TGI (DU-145 prostate): 3.39 µM
GI50 (TK-10 renal): 1.79 µM
TGI (TK-10 renal): 3.5 µM
GI50 (T-47D breast): 1.94 µM
TGI (T-47D breast): 4.85 µM
GI50 (OVCAR-8 ovarian): 2.33 µM
TGI (OVCAR-8 ovarian): 5.47 µM
GI50 (SNB-75 CNS): 1.46 µM
TGI (SNB-75 CNS): 3.36 µM
GI50 (ACHN renal): 3.33 µM
TGI (ACHN renal): 13.6 µM
GI50 (BT-549 breast): 1.98 µM
TGI (BT-549 breast): 4.49 µM
GI50 (SN12C renal): 1.87 µM
TGI (SN12C renal): 3.87 µM
GI50 (OVCAR-4 ovarian): 1.74 µM
TGI (OVCAR-4 ovarian): 3.67 µM
GI50 (HCC-2998 colon): 3.32 µM
TGI (HCC-2998 colon): 15.1 µM
GI50 (SK-MEL-2 melanoma): 2.6 µM
TGI (SK-MEL-2 melanoma): 7.12 µM
GI50 (OVCAR-3 ovarian): 1.83 µM
TGI (OVCAR-3 ovarian): 3.6 µM
GI50 (PC-3 prostate): 2.61 µM
TGI (PC-3 prostate): 8.12 µM
GI50 (HT29 colon): 1.83 µM
TGI (HT29 colon): 3.68 µM
GI50 (EKVX NSCLC): 2.64 µM
TGI (EKVX NSCLC): 10.3 µM
GI50 (SK-MEL-28 melanoma): 1.75 µM
TGI (SK-MEL-28 melanoma): 3.6 µM
GI50 (IGROV1 ovarian): 2.12 µM
TGI (IGROV1 ovarian): 5.92 µM
GI50 (SK-MEL-5 melanoma): 1.81 µM
TGI (SK-MEL-5 melanoma): 3.54 µM
GI50 (UACC-62 melanoma): 2.32 µM
TGI (UACC-62 melanoma): 5.72 µM
GI50 (A498 renal): 1.96 µM
TGI (A498 renal): 3.85 µM
GI50 (786-0 renal): 1.75 µM
TGI (786-0 renal): 3.39 µM
GI50 (NCI-H460 lung): 2 µM
TGI (NCI-H460 lung): 3.78 µM
GI50 (UO-31 renal): 7.97 µM
TGI (UO-31 renal): 26.5 µM
